The results in this text go back to patent publication US20080131404A1, “Hepatocytes” (priority 2004, published 2008).

One data set deals with human foetal liver cells. As to the kind of experiment: Neomycin titre and selection. The format is cell-based. The settings on record: 250 μg/ml neomycin, 2 week selection. On the procedure:
To determine what concentration of neomycin to use on the liver cells exposed to the virus, in order to eliminate all or the majority of non-infected cells, but not the infected cells, a titre of neomycin was set up. Human foetal liver cells from a dissociated liver that had never been exposed to the immortalising virus were plated in 6-well plates and exposed to neomycin concentrations ranging from 0-900 μg/ml for 12 days in triplicate. 100, 500 and 2000 cells/well were plate and the cells were left for 2 days before the neomycin was added. The growth and proliferation of the cells were studied visually with the TMS-F microscope (Nikon). Based on the result from the neomycin titre a concentration of 250 μg/ml neomycin was used for 2 weeks on the liver cells exposed to the immortalising virus.

The test system of another data set is HuH7 cells. The data set can be described thus: TaqMan analysis of CYP3A4 mRNA in HuH7. The format is cell-based, human. The settings on record: HuH7 samples. On the procedure: (§1) A standard TaqMan protocol was following using a 96 well optical reaction plate (Applied Biosystems, CA, USA). All probes and primers were supplied by MWG-Biotech, Ebersberg, Germany (see table 3). All probes were labelled with 3′TAMRA and 5′FAM. The reaction plate was sealed with optical adhesive cover (Applied Biosystems, CA, USA) and centrifuged for 1 min at 500 g before loading onto the TaqMan machine (ABI prism 7000 sequence detection system) and results analysed with ABI prism 7000 SDS software.

Data set [1] relates to LIV0A07. The data set can be described thus: Immunocytochemistry for hepatocyte markers albumin and CK-18. In kind it is cell-based, human. The settings on record: grown in the absence of 4-OHT for 48 h. On the procedure: Immunocytochemistry was used for early assessment of the cell line. […] The human hepatoma cell line HuH7 was used as a positive control for liver markers, while a myc-immortalised neural stem cell line (197VM) cells were used as a negative control.
All staining was performed in multiwell plates using the following method. Medium was aspirated and cells washed once with PBS prior to fixing using 4% paraformaldehyde for 15 min at room temperature. Cells were then washed three times in PBS, before being permeabilised for 15 min using 0.1% triton x-100 in PBS. Cells were washed with PBS once more then blocked for 1 h in 10% normal goat serum (NGS) (Vector Laboratories, CA, USA) in PBS. Primary antibodies were applied in 1% NGS/PBS for 1 h at room temperature. Cells were washed three times in PBS then exposed to the secondary antibody in 1% NGS/PBS for 1 h at room temperature. Cells were washed three times in PBS and Hoechst, a dye that stains DNA, was added for 2 min at room temperature (1:25,000 in PBS). Cells were washed a further three times in PBS and left in the final wash. Analysis was performed using a fluorescence microscope (Leica DMRA). The secondary antibody excited at a wavelength of ˜488 nm and gave emission at ˜525 nm (green emission) while Hoechst excited at ˜350 nm and emitted at ˜425 nm (blue emission).

The subject of data set [2] is clone 20 hepatocytes (c-myc-ER infected human foetal hepatocytes). As to the kind of experiment: Telomerase assay (Telo TAGGG telomerase PCR ELISA). In kind it is cell-based. The following applies: hepatocytes cultured in 0.5-10 μM 4-OHT. As to the method:
Cells from clone 20, p2 were cultured in T25 flasks for 1 week in media with 0, 100 nM, 1 μM and 10 μM 4-OHT for 1 week. The cells had been in culture for 2 months. Uninfected hepatocytes from the same liver were also used for the assay. These cells had been in culture for 3 weeks. The assay was performed according to the instructions for the Telo TAGGG telomerase PCR ELISAPWs (Roche). The plate reader GENios (Tecan) was used to analyse the results. Some of the fluorescence values were too high for the plate readers' spectra so a change to the protocol was done and the fluorescence was measured from only ⅓ of the final volume.
On the technique in general: An ELISA detects its analyte on a solid surface through an enzyme-linked reagent.

The test system of data set [3] is LIV0A07. As to the kind of experiment: TaqMan analysis of CYP3A4/CYP3A7 mRNA in LIV0A07. In kind it is cell-based, human. On the procedure:
as §1
Background: Quantitative PCR measures a nucleic acid by following its amplification.

In data set [4] the test system is LIV0A07. The data set can be described thus: Cyquant cell proliferation assay. The format is cell-based, human. On the procedure: Growth rate was assessed using the Cyquant cell proliferation assay (Molecular Probes, Paisley, UK). Cells were grown in multiwell plates or 25 cm^2 flasks and experiments were performed according to the manufacturers instructions.
Growth rate was assessed using the Cyquant cell proliferation assay to compare growth of LIV0A07 over 5 days in […] 4-OHT.

On to `NC[C@@H]1O[C@H](O[C@H]2[C@@H](O)[C@H](O[C@@H]3[C@@H](O)[C@H](N)C[C@H](N)[C@H]3O[C@H]3O[C@H](CN)[C@@H](O)[C@H](O)[C@H]3N)O[C@@H]2CO)[C@H](N)[C@@H](O)[C@@H]1O` [neomycin, Neomycin], for which the “survival of noninfected cells during selection” value in the data set on human foetal liver cells was “majority of the noninfected cells died”.

For the molecule 4-hydroxytamoxifen [4-OHT], the “effect of 4-OHT on CYP3A4 mRNA expression” value in the data set with HuH7 cells is on record as “no effect”. The “albumin and CK-18 staining, differentiated cultures” value in the data set on LIV0A07 [1] is “slightly stronger”. Further, the telomerase expression result in data set [2] is “up regulates telomerase expression”. The “CYP3A7 mRNA level on differentiation” value with LIV0A07 [3] (absence of 4-OHT) is “did not display the same differentiation induced increase”. Besides, in the data set on LIV0A07 [3] (grown in the absence of 4-OHT for 72 h compared to cultures with 4-OHT), the “CYP3A4 mRNA level, differentiated vs undifferentiated cultures” value is on record as “approximately 15 fold”. The proliferation entry in the data set with LIV0A07 [4] (0.1 mM 4-OHT, 5 days) is “Little proliferation”; in the data set with LIV0A07 [4] (0.5 and 1.0 mM 4-OHT, 5 days), “expanded to a greater extent”. For the same molecule, in the data set with LIV0A07 [4] (1.0 mM 4-OHT, initial slow proliferation after seeding), the “toxicity to the cells” value is given as “may be slightly toxic”. The “optimum concentration for 4-OHT dependent growth” value in the data set with LIV0A07 [4] (in the medium, 5 days) lay within 0.5 to 1.0 mM.
